Measurements from ChEMBL document CHEMBL1201862, “PubChem BioAssay data set” (2004).
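1) Cells in 96-well plates. 2) Compound, 48 h, 5 concentrations. 3) Linear interpolation between surrounding doses. 4) Unreached endpoint = highest concentration. GI50: concentration for 50% inhibition of growth.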 Active and inactive are the calls of the source. No stated cut-off is given here; in the data, active = GI50 up to about 1.1 µM and inactive = higher.

How the values were obtained:
Assay in all cases: NCI-60 cell line screen, 48 h
CAKI-1 = test system: CAKI-1
CCRF-CEM = test system: CCRF-CEM
EKVX = test system: EKVX
HL-60 = test system: HL-60
HT-29 = test system: HT-29
K562 = test system: K562
KM12 = test system: KM12
LOX IMVI = test system: LOX IMVI
Malme-3M = test system: Malme-3M
NCI-H460 = test system: NCI-H460
OVCAR-4 = test system: OVCAR-4
OVCAR-5 = test system: OVCAR-5
RPMI-8226 = test system: RPMI-8226
RXF 393 = test system: RXF 393
SF-539 = test system: SF-539
SK-MEL-28 = test system: SK-MEL-28
SK-MEL-2 = test system: SK-MEL-2
SN12C = test system: SN12C
SNB-75 = test system: SNB-75
UO-31 = test system: UO-31

Row | SMILES | GI50 (CAKI-1) | GI50 (CCRF-CEM) | GI50 (EKVX) | GI50 (HL-60) | GI50 (HT-29) | GI50 (K562) | GI50 (KM12) | GI50 (LOX IMVI) | GI50 (Malme-3M) | GI50 (NCI-H460) | GI50 (OVCAR-4) | GI50 (OVCAR-5) | GI50 (RPMI-8226) | GI50 (RXF 393) | GI50 (SF-539) | GI50 (SK-MEL-28) | GI50 (SK-MEL-2) | GI50 (SN12C) | GI50 (SNB-75) | GI50 (UO-31)
1 | O=[N+]([O-])/C(C(Cl)=C(Cl)Cl)=C1\Nc2ccccc2O1 | > 100 µM (inactive) | 19.5 µM (inactive) | > 100 µM (inactive) | 28.8 µM (inactive) | > 100 µM (inactive) | > 100 µM (inactive) | 90.6 µM (inactive) | > 100 µM (inactive) | 27.9 µM (inactive) | > 100 µM (inactive) | 33.8 µM (inactive) | > 100 µM (inactive) | 24.3 µM (inactive) | > 100 µM (inactive) | 19.9 µM (inactive) | > 100 µM (inactive) | > 100 µM (inactive) | 45.9 µM (inactive) | 15.7 µM (inactive) | 14.5 µM (inactive)
2 | CC(Oc1ccc(Cl)cc1Cl)C(=O)NN1C(=O)CC(=O)NC1=S (centres undefined) | 82 µM (inactive) | – | > 100 µM (inactive) | 30.9 µM (inactive) | > 100 µM (inactive) | > 100 µM (inactive) | > 100 µM (inactive) | 80 µM (inactive) | > 100 µM (inactive) | > 100 µM (inactive) | > 100 µM (inactive) | > 100 µM (inactive) | 46 µM (inactive) | > 100 µM (inactive) | > 100 µM (inactive) | > 100 µM (inactive) | 80.5 µM (inactive) | > 100 µM (inactive) | > 100 µM (inactive) | > 100 µM (inactive)
3 | COn1oc(=O)c2ccccc21 | > 100 µM (inactive) | > 100 µM (inactive) | > 100 µM (inactive) | > 100 µM (inactive) | > 100 µM (inactive) | > 100 µM (inactive) | > 100 µM (inactive) | > 100 µM (inactive) | 91.2 µM (inactive) | > 100 µM (inactive) | > 100 µM (inactive) | > 100 µM (inactive) | > 100 µM (inactive) | > 100 µM (inactive) | > 100 µM (inactive) | > 100 µM (inactive) | > 100 µM (inactive) | > 100 µM (inactive) | > 100 µM (inactive) | > 100 µM (inactive)
4 | CC(C)(C)c1ccc2c(c1)OP1(Oc3cccc4cccnc34)(O2)Oc2ccc(C(C)(C)C)cc2O1 | 12.2 µM (inactive) | 0.701 µM (active) | 3.08 µM (inactive) | 1.76 µM (inactive) | 3.89 µM (inactive) | 2.43 µM (inactive) | 6.73 µM (inactive) | 3.68 µM (inactive) | 5.28 µM (inactive) | 3.04 µM (inactive) | 2.48 µM (inactive) | 4.17 µM (inactive) | 0.597 µM (active) | 3.37 µM (inactive) | 10.4 µM (inactive) | 15.7 µM (inactive) | 7.85 µM (inactive) | 12.8 µM (inactive) | 15.7 µM (inactive) | 4.42 µM (inactive)
